Here are results for 31 compounds from patent US7834024B2, “Compositions and methods for inhibition of the JAK pathway” (Rigel Pharmaceuticals, Inc., priority 2007, dated 2010).

By IC50 is commonly meant the midpoint of a concentration-inhibition curve.

The first experiment deals with Ramos B-Cell Line Stimulated with IL-4 (JAK-1 and JAK-3 / Stat-6, CD23). As to the kind of experiment: Assay for Ramos B-Cell Line Stimulated with IL-4 (CD23 upregulation, FACS). The class given is cell-based. The following applies: Homo sapiens, Ramos, human Ramos B cells, compound 1 hour, IL-4 50 units/mL for 20-24 hours, anti-CD23-PE FACS; read-out: Example 2 (IC50). Put shortly: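 Human Ramos B cells (5×10^4 per point, RPMI with 5% serum) pre-incubated 1 hour at 37° C with compound or DMSO, then stimulated with IL-4 at 50 units/mL final for 20-24 hours. CD23 upregulation measured by flow cytometry.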
For the compound `N#CCc1ccc(Nc2ncc(F)c(Nc3ccc(Cc4ccncc4)cc3)n2)cc1` [Compound I-131, N2-(4-Cyanomethylphenyl)-5-fluoro-N4-[4-(4-pyridinylmethyl)phenyl]-2,4-pyrimidinediamine], the IC50 turned out to be 382 nM. In the case of `CC1(C)Oc2ccc(Nc3nc(Nc4ccc5oc(C(=O)NCCN6CCOCC6)cc5c4)ncc3F)nc2NC1=O` [Compound V-1, N4-[2,2-Dimethyl-3-oxo-4H-5-pyrido[1,4]oxazin-6-yl]-5-fluoro-N2-[2-(2-(N-morpholinyl)ethylaminocarbonyl)benzofuran-5-yl]-2,4-pyrimidinediamine], the IC50 is 144 nM.

`C#CCOc1ccc(Nc2nc(Nc3ccc4c(c3)C(=O)NCC4)ncc2F)cc1` [Compound V-2, 5-Fluoro-N2-(1-oxo-1,2,3,4-tetrahydroisoquinolin-7-yl)-N4-[4-(2-propynyloxy)phenyl]-2,4-pyrimidinediamine]: the IC50 worked out at 355 nM.

With `CNC(=O)COc1cccc(Nc2ncc(N)c(Nc3ccc4cn[nH]c4c3)n2)c1` [Compound V-4], the IC50 turned out to be 1970 nM. Still for that read-out and setting: then `CN1CCOc2cc(Nc3nc(Nc4ccc(C(N)=O)cc4)ncc3F)ccc21` [II-3, N2-(4-Aminocarbonylphenyl)-N4-(3,4-dihydro-4-methyl-2H-benzo[1,4]oxazin-7-yl)-5-fluoro-2,4-pyrimidinediamine], with 62.9 nM; and `CN1C(=O)CSc2ccc(Nc3nc(Nc4ccc(C(N)=O)cc4)ncc3F)cc21` [II-4, N2-(4-Aminocarbonylphenyl)-5-fluoro-N4-(4-methyl-3-oxo-2H-benzo[1,4]thiazin-6-yl)-2,4-pyrimidinediamine], with 5.43 nM. In the case of `Cc1cnc(Nc2cccc(C#N)c2)nc1Nc1ccc2c(c1)NC(=O)CS2` [II-9, N2-(3-Cyanophenyl)-5-methyl-N4-(3-oxo-2H,4H-benzo[1,4]thiazin-6-yl)-2,4-pyrimidinediamine], the IC50 came to 73.4 nM.

As for `COc1cc(Nc2ncc(F)c(Nc3ccc4c(c3)NC(=O)C(C)(C)O4)n2)cc(OCC#N)c1OC` [II-15, N2-(3-Cyanomethoxy-4,5-dimethoxyphenyl)-N4-(2,2-dimethyl-3-oxo-4H-benzo[1,4]oxazin-6-yl)-5-fluoro-2,4-pyrimidinediamine], the IC50 turned out to be 69.3 nM.

Consider `CCc1cc(Nc2ncc(F)c(Nc3ccc4c(c3)NC(=O)CS4)n2)cc(C#N)c1Cl` [II-23, N2-(4-Chloro-3-cyano-5-ethylphenyl)-5-fluoro-N4-(3-oxo-2H,4H-benzo[1,4]thiazin-6-yl)-2,4-pyrimidinediamine], for which the IC50 is 174 nM. The same measure, in the same setting: then `CCc1cc(Nc2ncc(F)c(Nc3ccc4c(c3)NC(=O)C(F)(F)O4)n2)cc(C#N)c1Cl` [II-24, N2-(4-Chloro-3-cyano-5-ethylphenyl)-N4-(2,2-difluoro-3-oxo-4H-benzo[1,4]oxazin-6-yl)-5-fluoro-2,4-pyrimidinediamine], with 1740 nM; and `CCc1cc(Nc2ncc(F)c(Nc3ccc4c(c3)NC(=O)C(C)(C)O4)n2)cc(C#N)c1Cl` [II-25, N2-(4-Chloro-3-cyano-5-ethylphenyl)-N4-(2,2-dimethyl-3-oxo-4H-benzo[1,4]oxazin-6-yl)-5-fluoro-2,4-pyrimidinediamine], with 1430 nM; and `CCc1cc(Nc2ncc(F)c(Nc3ccc4c(c3)NC(=O)CO4)n2)cc(C#N)c1Cl` [II-27, N2-(4-Chloro-3-cyano-5-ethylphenyl)-5-fluoro-N4-(3-oxo-2H,4H-benzo[1,4]oxazin-6-yl)-2,4-pyrimidinediamine], with 4820 nM. As for `Cc1cnc(Nc2cccc(C(N)=O)c2)nc1Nc1ccc2c(c1)CCC(=O)N2C` [II-28, N2-(3-Aminocarbonylphenyl)-5-methyl-N4-(1-methyl-2-oxo-1,2,3,4-tetrahydroquinolin-6-yl)-2,4-pyrimidinediamine], the IC50 turned out to be 899 nM.

Staying with this experiment, now noted: human Ramos B cells, compound 1 hour, IL-4 50 units/mL for 20-24 hours, anti-CD23-PE FACS; read-out: Example 2 (IC50).
As to `CCN(CC)CCNC(=O)c1ccc(Nc2ncc(F)c(Nc3cccc(OCc4nc(C)no4)c3)n2)cc1` [Compound I-125, N2-[4-(2-(N,N-Diethylamino)ethylaminocarbonyl)phenyl]-5-fluoro-N4-[3-(3-methyl-1,2,4-oxadiazol-5-yl)methyleneoxyphenyl]-2,4-pyrimidinediamine], the IC50 was determined as 103 nM. With `CCN(CC)CCNC(=O)c1ccc(Nc2ncc(F)c(Nc3ccc(OCc4cc(C)on4)cc3)n2)cc1` [Compound I-127, N2-[4-(2-(N,N-Diethylamino)ethylaminocarbonyl)phenyl]-5-fluoro-N4-[4-((5-methylisoxazol-3-yl)methyleneoxy)phenyl]-2,4-pyrimidinediamine], the IC50 was determined as 9.33 nM. As to `Cc1noc(COc2cccc(Nc3nc(Nc4cccc(C(N)=O)c4)ncc3F)c2)n1` [Compound I-128, N2-(3-Aminocarbonylphenyl)-5-fluoro-N4-[3-((3-methyl-1,2,4-oxadiazol-5-yl)methyleneoxy)phenyl]-2,4-pyrimidinediamine], the IC50 turned out to be 206 nM. Turning to `Cc1noc(COc2cccc(Nc3nc(Nc4ccc(CC#N)cc4)ncc3F)c2)n1` [Compound I-129, N2-(4-Cyanomethylphenyl)-5-fluoro-N4-[3-((3-methyl-1,2,4-oxadiazol-5-yl)methyleneoxy)phenyl]-2,4-pyrimidinediamine], the IC50 was determined as 1290 nM. Still for that read-out and setting: the same measure for `Cc1cc(COc2ccc(Nc3nc(Nc4ccc(CC#N)cc4)ncc3F)cc2)no1` [Compound I-130, N2-(4-Cyanomethylphenyl)-5-fluoro-N4-[4-((5-methylisoxazol-3-yl)methyleneoxy)phenyl]-2,4-pyrimidinediamine]: 344 nM; for `CNC(=O)COc1cccc(Nc2ncc(F)c(Nc3ccc(Cc4ccncc4)cc3)n2)c1` [Compound I-132, 5-Fluoro-N2-[3-(N-methylaminocarbonylmethyleneoxy)phenyl]-N4-[4-(4-pyridinylmethyl)phenyl]-2,4-pyrimidinediamine]: 322 nM; for `NC(=O)c1cccc(Nc2ncc(F)c(Nc3ccc(OCc4ccccn4)cc3)n2)c1` [Compound I-133, N2-(3-Aminocarbonylphenyl)-5-fluoro-N4-[4-(2-pyridinylmethyleneoxy)phenyl]-2,4-pyrimidinediamine]: 1560 nM. Still for that read-out and setting: the same measure for `Cc1cnc(Nc2cccc(C(N)=O)c2)nc1Nc1ccc(OCc2ccccn2)cc1` [Compound I-134, N2-(3-Aminocarbonylphenyl)-5-methyl-N4-[4-(2-pyridinylmethyleneoxy)phenyl]-2,4-pyrimidinediamine]: 84.6 nM; for `CCN(CC)CCNC(=O)c1ccc(Nc2ncc(F)c(Nc3ccc(OCc4ccccn4)cc3)n2)cc1` [Compound I-135, N2-[4-(2-(N,N-Diethylamino)ethylaminocarbonyl)phenyl)-5-fluoro-N4-[4-(2-pyridinylmethyleneoxy)phenyl]-2,4-pyrimidinediamine]: 56 nM; for `CNC(=O)COc1cccc(Nc2ncc(Br)c(Nc3ccc4c(c3)OCCO4)n2)c1` [II-1, 5-Bromo-N4-(3,4-ethylenedioxyphenyl)-N2-[3-(N-methylaminocarbonylmethyleneoxy)phenyl]-2,4-pyrimidinediamine]: 80.9 nM. Consider `CNC(=O)COc1cccc(Nc2ncc(C)c(Nc3ccc4c(c3)NC(=O)CO4)n2)c1` [II-5, 5-Methyl-N2-[3-(N-methylaminocarbonylmethyleneoxy)phenyl]-N4-(3-oxo-2H,4H-benzo[1,4]oxazin-6-yl)-2,4-pyrimidinediamine], for which the IC50 worked out at 28.5 nM. Same read-out and setting: then `CNC(=O)COc1cccc(Nc2ncc(F)c(Nc3ccc4c(c3)N(CC#N)C(=O)CO4)n2)c1` [II-11, N4-(4-Cyanomethyl-3-oxo-2H-benzo[1,4]oxazin-6-yl)-5-fluoro-N2-[3-(N-methylaminocarbonylmethyleneoxy)phenyl]-2,4-pyrimidinediamine], with 28 nM. With `CNC(=O)COc1cccc(Nc2ncc(F)c(Nc3ccc4c(c3)N(CC#N)C(=O)CS4)n2)c1` [II-12, N4-(4-Cyanomethyl-3-oxo-2H-benzo[1,4]thiazin-6-yl)-5-fluoro-N2-[3-(N-methylaminocarbonylmethyleneoxy)phenyl]-2,4-pyrimidinediamine], the IC50 was found to be 36.2 nM. On to `CNC(=O)COc1cccc(Nc2ncc(F)c(Nc3ccc4c(c3)N(Cc3ccccn3)C(=O)CO4)n2)c1` [II-14, 5-Fluoro-N2-[3-(N-methylaminocarbonylmethyleneoxy)phenyl]-N4-[3-oxo-4-(2-pyridinylmethyl)-2H-benzo[1,4]oxazin-6-yl]-2,4-pyrimidinediamine], for which the IC50 amounted to 672 nM. As for `CNC(=O)COc1cc(Nc2ncc(F)c(Nc3ccc4c(c3)NC(=O)CS4)n2)cc(OC)c1OC` [II-19, N2-[4,5-Dimethoxy-3-(N-methylaminocarbonylmethyleneoxy)phenyl]-5-Fluoro-N4-(3-oxo-2H,4H-benzo[1,4]thiazin-6-yl)-2,4-pyrimidinediamine], the IC50 was 95 nM. The same measure, in the same setting: the same measure for `CNC(=O)COc1cc(Nc2ncc(F)c(Nc3ccc4c(c3)NC(=O)C(F)(F)O4)n2)cc(OC)c1OC` [II-20, N4-(2,2-Difluoro-3-oxo-4H-benzo[1,4]oxazin-6-yl)-N2-[4,5-Dimethoxy-3-(N-methylaminocarbonylmethyleneoxy)phenyl]-5-fluoro-2,4-pyrimidinediamine]: 480 nM. Same read-out and setting: then `CNC(=O)COc1cc(Nc2ncc(F)c(Nc3ccc4c(n3)NC(=O)C(C)(C)O4)n2)cc(OC)c1OC` [II-21, N2-[4,5-Dimethoxy-3-(N-methylaminocarbonylmethyleneoxy)phenyl]-N4-(2,2-dimethyl-3-oxo-4H-5-pyrido[1,4]oxazin-6-yl)-5-fluoro-2,4-pyrimidinediamine], with 130 nM; and `CNC(=O)COc1cc(Nc2ncc(F)c(Nc3ccc4c(c3)NC(=O)CO4)n2)cc(OC)c1OC` [II-22, N2-[4,5-Dimethoxy-3-(N-methylaminocarbonylmethyleneoxy)phenyl]-5-fluoro-N4-(3-oxo-2H,4H-benzo[1,4]oxazin-6-yl)-2,4-pyrimidinediamine], with 110 nM.
